Assay results from patent US10869846B2, “N-acetylcysteine amide (NAC amide) in the treatment of diseases and conditions associated with oxidative stress” (SENTIENT LIFESCIENCES, INC., priority 2005, dated 2020).

System: Sprague-Dawley rats
Assay: Survival after whole body single-dose X-ray irradiation (9 Gy)
Assay type: in vivo, rat
Conditions: for survival rate versus XRT alone: pre-treated before XRT
Text: This Example describes a study observing the survival of rats receiving whole body, single-dose irradiation by X-rays (XRT) in the presence or absence of NAC or NAC amide (TOVA). In this experiment, thirty-nine female Sprague-Dawley rats ranging from about 150-200 g were subjected to total body, single-dose X-ray irradiation (9 Gy, 16 Mev). The same groups were designated to receive either NAC or TOVA. For the pre-treatment groups (n=6 in each group), the first treatment of NAC or TOVA was administered 30 minutes to 1 hour before irradiation. For the post-pretreatment groups (n=6 in each group), the first treatment of NAC or TOVA was administered 30 minutes to 1 hour after the irradiation. For groups receiving NAC or TOVA, the same amount (500 mg/kg NAC or TOVA daily) was administered for 4 or 5 consecutive days.
Group 1 was a control group (n=3), where rats received the same amount of saline solution daily for 5 consecutive days without XRT. Group 2 rats received NAC only (n=3) at an amount of 500 mg/kg body weight NAC daily for 5 consecutive days without XRT. Group 3 rats received TOVA only (n=3) at an amount of 500 mg/kg body weight TOVA daily for 5 consecutive days without XRT. Group 4 rats received radiation (XRT) only (n=6) and received the same amount of saline solution daily for 5 consecutive days after single dose total-body XRT irradiation.
Group 5 rats received one treatment of NAC at 500 mg/kg body weight before XRT (XRT+NAC pre-treated), which was then followed by 500 mg/kg body weight NAC daily for 4 consecutive days after XRT. Group 6 rats received XRT, followed by daily doses of NAC at 500 mg/kg body weight for 5 consecutive days after XRT (XRT+NAC post-treated). Group 7 rats […] at 500 mg/kg body weight before XRT (XRT+TOVA pre-treated), which was then followed by 500 mg/kg body weight TOVA daily for 4 consecutive days after XRT. Group 8 rats received XRT, followed by daily doses of TOVA at 500 mg/kg body weight for 5 consecutive days after XRT (XRT+TOVA post-treated). All rats were then given a normal diet post-treatment.
The rats were observed twice a day, and the survival status of rats in each group will be recorded. The mean survival days were calculated for each group and compared to the survival differences of the three groups of rats at the end of the experiment. The radioprotective effects of NAC and TOVA treatment on the survival of those irradiated rats were then evaluated, as shown in the following tables.

[1] = Table 15, XRT 9 Gy, post-treated
[2] = Table 15, XRT 9 Gy, pre-treated
[3] = Table 15, compound only, no XRT
[4] = Table 16, XRT 9 Gy, post-treated
[5] = Table 16, XRT 9 Gy, pre-treated
[6] = Table 16, compound only, no XRT
[7] = XRT 9 Gy, post-treated, 500 mg/kg daily, n = 6, 2nd time
[8] = XRT 9 Gy, pre-treated, 500 mg/kg daily, n = 6, 1st time
[9] = XRT 9 Gy, pre-treated, 500 mg/kg daily, n = 6, 2nd time
[10] = compound only, no XRT, 500 mg/kg daily 5 days, 2nd time

Molecule: CC(=O)N[C@@H](CS)C(=O)O [NAC, N-acetylcysteine]
- percentage survival rate [1]: 33.3%
- percentage survival rate [2]: 83.3%
- percentage survival rate [3]: 100%
- percentage survival rate [4]: 33.3%
- percentage survival rate [5]: 83.3%
- percentage survival rate [6]: 100%
- # of animals dead [7]: 4
- # of animals survived [7]: 2
- # of animals dead [8]: 1
- # of animals survived [8]: 5
- # of animals dead [9]: 1
- # of animals survived [9]: 5
- # of animals dead [10]: 0
- # of animals survived [10]: 2
- survival rate versus XRT alone: higher survival rate

Molecule: N-acetylcysteine amide [NAC amide]
- percentage survival rate [1]: 66.7%
- percentage survival rate [2]: 100%
- percentage survival rate [3]: 100%
- percentage survival rate [4]: 66.7%
- percentage survival rate [5]: 100%
- percentage survival rate [6]: 100%
- # of animals dead [7]: 2
- # of animals survived [7]: 4
- # of animals dead [8]: 0
- # of animals survived [8]: 6
- # of animals dead [9]: 0
- # of animals survived [9]: 6
- # of animals dead [10]: 0
- # of animals survived [10]: 3
- survival rate versus XRT alone: higher survival rate
